This is an account of results in patent US9505781B2, “Compositions comprising thienopyrimidine and thienopyridine compounds and methods of use thereof” (The Regents of the University of Michigan, priority 2013, dated 2016).

The assay concerns the target T1, menin-MLL interaction (Homo sapiens, UniProt O00255).
T1 sequence (O00255 1-610): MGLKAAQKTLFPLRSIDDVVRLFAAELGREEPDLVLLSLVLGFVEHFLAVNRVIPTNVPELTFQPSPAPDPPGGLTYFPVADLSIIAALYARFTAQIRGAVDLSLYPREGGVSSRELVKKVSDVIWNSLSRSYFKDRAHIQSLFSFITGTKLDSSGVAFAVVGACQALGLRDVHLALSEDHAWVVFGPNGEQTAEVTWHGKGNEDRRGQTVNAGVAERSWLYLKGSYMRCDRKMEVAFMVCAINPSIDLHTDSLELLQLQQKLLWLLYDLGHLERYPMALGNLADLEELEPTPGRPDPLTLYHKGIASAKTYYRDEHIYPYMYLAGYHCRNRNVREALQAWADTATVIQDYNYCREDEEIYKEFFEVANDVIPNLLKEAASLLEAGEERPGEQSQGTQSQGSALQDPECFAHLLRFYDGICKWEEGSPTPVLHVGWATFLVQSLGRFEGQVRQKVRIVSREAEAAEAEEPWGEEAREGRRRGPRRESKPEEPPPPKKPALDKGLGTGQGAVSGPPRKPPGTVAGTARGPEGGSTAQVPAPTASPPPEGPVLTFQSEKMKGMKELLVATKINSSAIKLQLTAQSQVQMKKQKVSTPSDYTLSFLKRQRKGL
The assay is described as follows: biochemical.
Excerpt: Compounds that inhibit the interaction decrease the fluorescence anisotropy which is being used as a read-out for compound screening and for IC50 determination.
For the compound `N#Cc1[nH]c2ccc(CN3CCC(Nc4ncnc5sc(CC(F)(F)F)cc45)CC3)cc2c1F` [Compound 176], the IC50 was under 100 nM. For `CCn1c(C#N)cc2cc(CN3CCC(Nc4ncnc5sc(CC(F)(F)F)cc45)CC3)ccc21` [Compound 177] the value was under 100 nM; for `N#Cc1cc2cc(CN3CCC(Nc4ncnc5sc(CC(F)(F)F)cc45)CC3)ccc2n1CC1CC1` [Compound 178], under 100 nM. For `N#Cc1cc2cc(CN3CCC(Nc4ncnc5sc(CC(F)(F)F)cc45)CC3)ccc2n1CCO` [Compound 179], the IC50 was under 100 nM.

Regarding `COc1c(CN2CCC(Nc3ncnc4sc(CC(F)(F)F)cc34)CC2)ccc2[nH]c(C#N)cc12` [Compound 180, 4-methoxy-5-((4-((6-(2,2,2-trifluoroethyl)thieno[2,3-d]pyrimidin-4-yl)amino)piperidin-1-yl)methyl)-1H-indole-2-carbonitrile], the IC50 was under 100 nM. As to `COc1cc2[nH]c(C#N)cc2cc1CN1CCC(Nc2ncnc3sc(CC(F)(F)F)cc23)CC1` [Compound 181, 6-methoxy-5-((4-((6-(2,2,2-trifluoroethyl)thieno[2,3-d]pyrimidin-4-yl)amino)piperidin-1-yl)methyl)-1H-indole-2-carbonitrile], the IC50 is under 100 nM.

In turn, `N#Cc1cc2cc(CN3CCC(Nc4ncnc5sc(CC(F)(F)F)cc45)CC3)c(O)cc2[nH]1` [Compound 182, 6-hydroxy-5-((4-((6-(2,2,2-trifluoroethyl)thieno[2,3-d]pyrimidin-4-yl)amino)pipendin-1-yl)methyl)-1H-indole-2-carbonitrile] displayed an IC50 of under 100 nM.

Regarding `N#Cc1cc2cc(CN3CCC(Nc4ncnc5sc(CC(F)(F)F)cc45)CC3)ccc2n1CO` [Compound 183], the IC50 was under 100 nM. In turn, `N#Cc1cc2c(F)c(CN3CCC(Nc4ncnc5sc(CC(F)(F)F)cc45)CC3)ccc2[nH]1` [Compound 184] registered an IC50 of under 100 nM. `N#Cc1cc2cc(CN3CCC(Nc4ncnc5sc(CC(F)(F)F)cc45)CC3)ccc2n1Cc1c[nH]cn1` [Compound 185] showed an IC50 of under 100 nM. Turning to `N#Cc1cc2cc(CN3CCC(Nc4ncnc5sc(CC(F)(F)F)cc45)CC3)ccc2n1CCN` [Compound 186], the IC50 was under 100 nM. As for `N#Cc1cc2cc(CN3CCC(Nc4ncnc5sc(CC(F)(F)F)cc45)CC3)ccc2n1C[C@@H](O)CO` [Compound 187], the IC50 is under 100 nM. The compound `N#Cc1cc2cc(CN3CCC(Nc4ncnc5sc(CC(F)(F)F)cc45)CC3)ccc2n1CC(N)=O` [Compound 189] displayed a half-maximal inhibitory concentration (IC50) of under 100 nM. For `CO[C@@H](CO)Cn1c(C#N)cc2cc(CN3CCC(Nc4ncnc5sc(CC(F)(F)F)cc45)CC3)ccc21` [Compound 190], the IC50 is under 100 nM. For the compound `CO[C@H](CO)Cn1c(C#N)cc2cc(CN3CCC(Nc4ncnc5sc(CC(F)(F)F)cc45)CC3)ccc21` [Compound 191], the half-maximal inhibitory concentration (IC50) was under 100 nM.

As for `N#Cc1cc2cc(CN3CCC(Nc4ncnc5sc(CC(F)(F)F)cc45)CC3)ccc2n1CCN1CCOCC1` [Compound 192], the IC50 was under 100 nM. `COc1c(CN2CCC(Nc3ncnc4sc(CC(F)(F)F)cc34)CC2)ccc2c1cc(C#N)n2CC(N)=O` [Compound 193] registered a half-inhibitory concentration (IC50) of under 100 nM. In the case of `N#Cc1cc2cc(CN3CCC(Nc4ncnc5sc(CC(F)(F)F)cc45)CC3)ccc2n1CCC(N)=O` [Compound 194], the IC50 is under 100 nM. For `N#Cc1cc2cc(CN3CCC(Nc4ncnc5sc(CC(F)(F)F)cc45)CC3)ccc2n1Cc1c[nH]nn1` [Compound 195] the value was under 100 nM. Compound `N#Cc1cc2cc(CN3CCC(Nc4ncnc5sc(CC(F)(F)F)cc45)CC3)ccc2n1CCn1cccn1` [Compound 196] showed a 50% inhibitory concentration (IC50) of under 100 nM. As for `N#CCn1c(C#N)cc2cc(CN3CCC(Nc4ncnc5sc(CC(F)(F)F)cc45)CC3)ccc21` [Compound 197], the IC50 was under 100 nM. The compound `N#Cc1cc2cc(CN3CCC(Nc4ncnc5sc(CC(F)(F)F)cc45)CC3)ccc2n1Cc1ncon1` [Compound 198] gave an IC50 of under 100 nM. In the case of `N#Cc1cc2cc(CN3CCC(Nc4ncnc5sc(CC(F)(F)F)cc45)CC3)ccc2n1Cc1cc[nH]n1` [Compound 199] it was under 100 nM; in that of `N#Cc1cc2cc(CN3CCC(Nc4ncnc5sc(CC(F)(F)F)cc45)CC3)ccc2n1Cc1cscn1` [Compound 200], under 100 nM. `Cc1nc(Cn2c(C#N)cc3cc(CN4CCC(Nc5ncnc6sc(CC(F)(F)F)cc56)CC4)ccc32)cs1` [Compound 201] gave a 50% inhibitory concentration (IC50) of under 100 nM. `N#Cc1cc2cc(CN3CCC(Nc4ncnc5sc(CC(F)(F)F)cc45)CC3)ccc2n1Cc1cn[nH]c1` [Compound 202] showed an IC50 of under 100 nM. For `Cn1ccnc1Cn1c(C#N)cc2cc(CN3CCC(Nc4ncnc5sc(CC(F)(F)F)cc45)CC3)ccc21` [Compound 203] the value was under 100 nM; for `N#Cc1cc2cc(CN3CCC(Nc4ncnc5sc(CC(F)(F)F)cc45)CC3)ccc2n1Cc1nc[nH]n1` [Compound 204], under 100 nM; for `N#Cc1cc2c(F)c(CN3CCC(Nc4ncnc5sc(CC(F)(F)F)cc45)CC3)ccc2n1CC(N)=O` [Compound 205], under 100 nM. In the case of `N#Cc1ccc2c(CN3CCC(Nc4ncnc5sc(CC(F)(F)F)cc45)CC3)c[nH]c2c1` [Compound 206], the IC50 is under 100 nM.

As for `N#Cc1cc2cc(CN3CCC(Nc4ncnc5sc(CC(F)(F)F)cc45)CC3)ccc2n1CCn1ccnn1` [Compound 207], the IC50 was under 100 nM. With `CC(=O)NCCn1c(C#N)cc2cc(CN3CCC(Nc4ncnc5sc(CC(F)(F)F)cc45)CC3)ccc21` [Compound 208], the IC50 was under 100 nM.

For `N#Cc1cc2cc(CN3CCC(Nc4ncnc5sc(CC(F)(F)F)cc45)CC3)ccc2n1CCn1cncn1` [Compound 209], the IC50 was under 100 nM. For the compound `N#Cc1cc2cc(CN3CCC(Nc4ncnc5sc(CC(F)(F)F)cc45)CC3)ccc2n1CS(N)(=O)=O` [Compound 210], the IC50 is under 100 nM.

In turn, `N#Cc1cc2cc(C(CO)N3CCC(Nc4ncnc5sc(CC(F)(F)F)cc45)CC3)ccc2[nH]1` (stereo not drawn) [Compound 211] registered an IC50 of under 100 nM. `CNC(=O)Cn1c(C#N)cc2cc(CN3CCC(Nc4ncnc5sc(CC(F)(F)F)cc45)CC3)ccc21` [Compound 212] yielded an IC50 of under 100 nM. Turning to `N#Cc1c(F)c2cc(CN3CCC(Nc4ncnc5sc(CC(F)(F)F)cc45)CC3)ccc2n1CC(N)=O` [Compound 213], the half-maximal inhibitory concentration (IC50) was under 100 nM. `N#Cc1cc2cc(CN3CCC(Nc4ncnc5sc(CC(F)(F)F)cc45)CC3)c(F)cc2n1CC(N)=O` [Compound 214]: the IC50 was under 100 nM. In the case of `CCOc1cc2[nH]c(C#N)cc2cc1CN1CCC(Nc2ncnc3sc(CC(F)(F)F)cc23)CC1` [Compound 215] it was under 100 nM; in that of `CCOc1cc2c(cc1CN1CCC(Nc3ncnc4sc(CC(F)(F)F)cc34)CC1)cc(C#N)n2CC(N)=O` [Compound 216], under 100 nM; in that of `CCOc1cc2c(cc1CN1CCC(Nc3ncnc4sc(CC(F)(F)F)cc34)CC1)cc(C#N)n2C[C@H](O)CO` [Compound 217], under 100 nM. `Cc1ccc2[nH]c(C#N)cc2c1CN1CCC(Nc2ncnc3sc(CC(F)(F)F)cc23)CC1` [Compound 218] yielded an IC50 of under 100 nM. As to `N#Cc1cc2cc(CN3CCC(Nc4ncnc5sc(CC(F)(F)F)cc45)CC3)ccc2n1C(F)C(N)=O` (stereo not drawn) [Compound 220], the IC50 is under 100 nM. For the compound `CC(O)(CO)Cn1c(C#N)cc2cc(CN3CCC(Nc4ncnc5sc(CC(F)(F)F)cc45)CC3)ccc21` (stereo not drawn) [Compound 221], the concentration for half-maximal inhibition (IC50) was under 100 nM. `N#Cc1cc2cc(CN3CCC(Nc4ncnc5sc(CC(F)(F)F)cc45)CC3)ccc2n1CC(CO)OC1CC1` (stereo not drawn) [Compound 222] came in with a concentration for half-maximal inhibition (IC50) of under 100 nM. With `N#Cc1cc2cc(CN3CCC(Nc4ncnc5sc(CC(F)(F)F)cc45)CC3)ccc2n1CCCC(F)(F)F` [Compound 223], the IC50 is under 100 nM. Consider `N#Cc1cc2c(Cl)c(CN3CCC(Nc4ncnc5sc(CC(F)(F)F)cc45)CC3)ccc2[nH]1` [Compound 224], for which the IC50 was under 100 nM.

As for `N#Cc1cc2c(Cl)c(CN3CCC(Nc4ncnc5sc(CC(F)(F)F)cc45)CC3)ccc2n1CC(N)=O` [Compound 225], the IC50 was under 100 nM. Consider `N#Cc1cc2c(Cl)c(CN3CCC(Nc4ncnc5sc(CC(F)(F)F)cc45)CC3)ccc2n1C[C@H](O)CO` [Compound 226], for which the IC50 was under 100 nM.

The compound `FC(F)(F)Cc1cc2c(NC3CCN(Cc4ccc5cc[nH]c5c4)CC3)ncnc2s1` [Compound 227] gave a concentration for half-maximal inhibition (IC50) of 100 to 500 nM. `N#Cc1c[nH]c2cc(CN3CCC(Nc4ncnc5sc(CC(F)(F)F)cc45)CC3)ccc12` [Compound 228] came in with an IC50 of 100 to 500 nM.

As for `N#Cc1cc2ccc(CN3CCC(Nc4ncnc5sc(CC(F)(F)F)cc45)CC3)cc2[nH]1` [Compound 229], the IC50 lay in the range of 100 to 500 nM. `N#Cc1cc2cc(CN3CCC(Nc4ncnc5sc(CC(F)(F)F)cc45)CC3)ccc2n1N` [Compound 230] registered a half-maximal inhibitory concentration (IC50) of 100 to 500 nM. `CNn1c(C#N)cc2cc(CN3CCC(Nc4ncnc5sc(CC(F)(F)F)cc45)CC3)ccc21` [Compound 231] came in with a 50% inhibitory concentration (IC50) of 100 to 500 nM.

`NC(=O)c1cc2cc(CN3CCC(Nc4ncnc5sc(CC(F)(F)F)cc45)CC3)ccc2[nH]1` [Compound 232] gave an IC50 of 100 to 500 nM.

Regarding `N#Cc1[nH]c2ccc(CN3CCC(Nc4ncnc5sc(CC(F)(F)F)cc45)CC3)cc2c1N` [Compound 233], the IC50 fell in the range of 100 to 500 nM. `N#Cc1cc2cc(CN3CCC(Nc4ncnc5sc(CC(F)(F)F)cc45)CC3)c(F)cc2[nH]1` [Compound 234] yielded a half-maximal inhibitory concentration (IC50) of 100 to 500 nM.
